The values that follow come from US11559579B2 (HealthPartners Research & Education, priority 2014, dated 2023).

Test [1] deals with neurons in the hippocampus. Put plainly: NeuN immunohistochemistry of hippocampus post-injury. The format is in vivo, Sprague Dawley rats. As to conditions: after sacrifice on day 8 post-injury; vs saline rats; FIG. 8a/8b. An excerpt: (§1) 2007 Mar. 15; 160(2):187-96. Onyszchuk, G., et al., J. Neurosci. Methods, 2007, 160(2): p.
FIG. 8a illustrates neuronal viability in the saline rat hippocampus.

The subject of test [2] is M2 microglia (CD206). Put plainly: M2 microglia marker CD206 expression post-injury. The format is in vivo, Sprague Dawley rats. As to conditions: sacrifice on day 8 post-injury; vs intranasal saline rats; FIG. 3.
Source text: as §1
(§2) Microglia are the macrophages of the brain, with two dominant phenotypes: M1 and M2.
(§3) M1 microglia are classically activated pro-inflammatory cells. M1 microglia are useful in the initial healing process, but persistent activation results in neuronal cell death due to production of reactive oxygen species. M2 microglia are anti-inflammatory, pro-healing macrophages.

The test system of test [3] is Moderate Controlled Cortical Impact Injury Model (TBI). Put plainly: Morris water maze probe trial after controlled cortical impact. The format is in vivo, Sprague Dawley rats. As to conditions: days 11-14 post-injury.
Source text: as §1

The test system is the same in test [4]. Put plainly: Beam walk motor function test after controlled cortical impact. The format is in vivo, Sprague Dawley rats. The conditions noted are these: day 7 post-injury vs day 1 baseline and vs saline (vehicle) rats on day 7; intranasal, first dose 4 hours post-injury, then once a day; FIG. 1.
Source text: as §1

The test system is the same in test [5]. Description: Peg walk motor function test after controlled cortical impact. As to conditions: day 7 vs day 1 baseline and vs saline (vehicle) rats on day 7; intranasal, once a day; FIG. 2. The format is in vivo, Sprague Dawley rats.
Source text: as §1

For test [6], the system named is M1 microglia (CD86). Put plainly: M1 microglia marker CD86 expression post-injury. As to conditions: sacrifice on day 8 post-injury; vs saline rats; FIG. 4. The format is in vivo, Sprague Dawley rats.
Source text: as §1, §2, §3

For test [7] the following is noted: intranasal insulin; normal adults and patients with Alzheimer's disease; cited from earlier work.

As to insulin, the “neuronal viability in the hippocampus (NeuN)” value in test [1] is reported as “improved neuronal viability in the hippocampus”. Moreover, the “M2 microglia, expression of CD206” value in test [2] was “significant increase in M2 microglia”. Also, the “search strategy (Morris water maze probe trial)” value in test [3] (insulin vs saline (vehicle) treated rats, FIG. 7) is “saline (vehicle) treated rats utilized significantly less targeted search methods (looping) than insulin rats”. Besides, in test [3] (vs saline (vehicle) treated rats, FIG. 6), the “number of crosses of the target island region (Morris water maze probe trial)” value is listed as “significant increase in the number of crosses of the target island region”. Also, in test [4], the “time to cross the beam (beam walk)” value was “significant decrease in time”. In addition, in test [5], the “peg walk motor function” value is given as “positive trend towards improved motor function”. Further, the “M1 microglia markers, expression of CD86” value in test [6] is “no significant increase in expression of M1 microglia markers”. Besides, the memory result in test [7] is given as “improve memory”.
